Measurements as given in patent US11591326B2, “Inhibitors of protein arginine methyltransferase 5 (PRMT5), pharmaceutical products thereof, and methods thereof” (PHARMABLOCK SCIENCES (NANJING), INC., priority 2018, dated 2023).
Where two headings read alike, the source gives them in different places.

What was measured:
HCC827 = test: Lung cancer panel proliferation inhibition, HCC827; type: cell-based; settings: Homo sapiens
Experimental: (§1) Inhibitory ability of compounds synthesized on the proliferation of three panels of cancer cell lines, including 5 breast cancer, 6 liver cancer, and 3 lung cancer cell lines were evaluated. Exponentially growing cells were seeded in the media of choice at various cell densities in 384-well plates with 20 ul per well and incubated overnight at 37° C., 5% CO2 incubator. Compounds were prepared as 10-point, 3-fold serial dilutions in DMSO, beginning at 6 mM. 1 μl of DMSO solutions from the compound stock plates were added to 99 ul of cell media (final top concentration of compound in the assay was 30 uM and the final concentration of DMSO was 0.5%). 20 μL of compound solutions in media were added to each well of plates with cells seeded. After adding compound solutions, assay plates were incubated for 8 and 12 days, respectively, at 37° C., 5% CO2. During this incubation period, cell media was changed every 4 days. After removing old media from cell plates, 40 ul of media with testing compounds dissolved, which were prepared by adding 1 ul of compound DMSO serial solutions to 199 ul of cell media, were added to the assay plates with the same layout as they were initially prepared. After 8 or 12 days, cell viability was measured using the CellTiter-Glo assay kit from Promega (Madison, Wis., USA) by quantitating the ATP present in the cell cultures. 20 μL of CellTiter-Glo reagent was added to each well of the cell plates. Luminescence was read after 10 minute of incubation with the Envision multiple plate reader from PerkinElmer (Waltham, Mass., USA). The concentrations of compounds inhibiting cell viability by 50% (IC50 values) were determined using a sigmoidal dose-response model (variable slopes, four parameters) in Prism 7 (La Jolla, Calif., USA).

MCF-7 = test: Breast cancer panel proliferation inhibition, MCF-7; type: cell-based; settings: Homo sapiens
Experimental: as §1

MDA-MB-231 = test: Breast cancer panel proliferation inhibition, MDA-MB-231; type: cell-based; settings: Homo sapiens
Experimental: as §1

Huh7 = test: Liver cancer panel proliferation inhibition, Huh7; type: cell-based; settings: Homo sapiens
Experimental: as §1

[1] = Pharmacokinetic study in dog; type: in vivo, male beagle dogs; settings: male, beagle; for plasma clearance / Vd: 2 mg/kg, Dog PK (IV) 2 mpk; for plasma clearance: read-out: Clint (converted); for Vd / AUC(0-t) / Cmax / Tmax / bioavailability / half-life: plasma; for Vd: read-out: Vss; for AUC(0-t) / Cmax / Tmax / bioavailability / half-life: 10 mg/kg, Dog PK (PO) 10 mpk; for half-life: read-out: T½ (converted)
Experimental: None naïve male beagle dogs (8-10 kg; purchased from Beijing Marshall Biotechnology Co. LTD; n=18, with 3 per compound) were treated with a single dose of compounds being tested at 2 mg/kg by intravenous tail-vein injection and 10 mg/kg by oral gavage administration, with both doses formulated in 5% DMSO+45% PEG400 in water. Animals upon PO administration were fasted overnight and fed 4 hours after dosing. Animals upon IV administration were free access to food and water. The study was performed in accordance with the guidelines and standards of the Association for Assessment and Accreditation of Laboratory Animal Care (AAALAC International) and the National Institutes of Health.
The animal was restrained manually at the designated time points, and approximately 500 μL of each blood/time point was collected via cephalic vein and put on wet ice, then centrifuged at 2000 g for 5 min (4° C.) within 15 minutes post sampling. Plasma samples were stored at approximately −70° C. until analysis. An aliquot of 20 μL sample was added with 200 μL IS (Diclofenac, 100 ng/mL) in ACN. The mixture was vortexed for 10 min and centrifuged at 5800 rpm for 10 min. An aliquot of 1 μL supernatant was injected for LC-MS/MS analysis. For 10×-diluted sample, an aliquot of 2 μL sample was added with 18 μL blank plasma. The sample preparation procedure is same with no-diluted sample. Standard calibration curves were constructed by analyzing a series of control plasma aliquots containing Diclofenac (100 ng/mL) as an internal standard and 3-3,000 ng/mL testing compounds. Compound concentrations were determined with UPLC-MS/MS-22 (Triple Quad™ 6500).

[2] = test system: Pancreatic Carcinoma MIA PaCa-2 cell; test: Cell proliferation inhibition, MIA PaCa-2 (CellTiter-Glo); type: cell-based; settings: Homo sapiens, MIA PaCa-2, incubated for 12 days (read after 8 or 12 days), read-out: IC50 (μM) MIA PaCa2
Description: Materials and Cell Lines: Z-138, U251, and MIA PaCa2 cells were purchased from ATCC (American Type Culture Collection, Manassas, Va.) and Chinese Academy of Science (Shanghai, China). Iscove's Modified Dulbecco's Medium (IMDM), Dulbecco's Modified Eagle Medium (DMEM), penicillin-streptomycin, heat inactivated fetal bovine serum (FBS), and horse serum was purchased from ThermoFisher, Waltham, Mass., USA. Corning 96- and 384-well cell culture plates were purchased from ThermoFisher, Waltham, Mass., USA. Cell-Titer Glo® was purchased from Promega Corporation, Madison, Wis., USA.
In order to evaluate the inhibitory ability of compounds synthesized on the proliferation of the Pancreatic Carcinoma MIA PaCa-2 cell, exponentially growing cells were seeded in the culture media of DMEM with 10% FBS, 2.5% horse serum, 1 mM of Sodium Pyruvate and 1% penicillin-streptomycin at a concentration of 2500 cells/ml in a 384-well plate with 20 ul per well and incubated overnight at 37° C., 5% CO2 incubator. Compounds were prepared as 10-point, 3-fold serial dilutions in DMSO, beginning at 6 mM. 1 μl of DMSO solutions from the compound stock plates were added to 99 ul of cell media (final top concentration of compound in the assay was 30 uM and the final concentration of DMSO was 0.5%). 20 μL of compound solutions in media were added to each well of MIA PaCa-2 cell plates. After adding compound solutions, assay plates were incubated for 12 days at 37° C., 5% CO2. During this incubation period, cell media was changed every 4 days. After removing old media from cell plates, 40 ul of media with testing compounds dissolved, which were prepared by adding 1 ul of compound DMSO serial solutions to 199 ul of cell media, were added to the assay plates with the same layout as they were initially prepared. After 8 or 12 days, cell viability was measured using the CellTiter-Glo assay kit from Promega (Madison, Wis., USA) by quantitating the ATP present in the cell cultures. 20 μL of CellTiter-Glo reagent was added to each well of the cell plates. Luminescence was read after 10 minute of incubation with the Envision multiple plate reader from PerkinElmer (Waltham, Mass., USA). The concentrations of compounds inhibiting cell viability by 50% (IC50 values) were determined using a sigmoidal dose-response model (variable slopes, four parameters) in Prism 7 (La Jolla, Calif., USA).

[3] = 192 h, HCC827, 8 days, read-out: IC50 (μM) 8 days
[4] = 288 h, HCC827, 12 days, read-out: IC50 (μM) 12 days
[5] = MCF7, 192 h, MCF-7, 8 days, read-out: IC50 (μM) 8 days
[6] = MCF7, 288 h, MCF-7, 12 days, read-out: IC50 (μM) 12 days
[7] = 192 h, MDA-MB-231, 8 days, read-out: IC50 (μM) 8 days
[8] = 288 h, MDA-MB-231, 12 days, read-out: IC50 (μM) 12 days
[9] = Huh-7, 192 h, Huh7, 8 days, read-out: IC50 (μM) 8 days
[10] = Huh-7, 288 h, Huh7, 12 days, read-out: IC50 (μM) 12 days

Compound	IC50 (HCC827; [3]) [µM]	IC50 (HCC827; [4]) [µM]	IC50 (MCF-7; [5]) [µM]	IC50 (MCF-7; [6]) [µM]	IC50 (MDA-MB-231; [7]) [µM]	IC50 (MDA-MB-231; [8]) [µM]	IC50 (Huh7; [9]) [µM]	IC50 (Huh7; [10]) [µM]	plasma clearance [1] [mL/min/kg]	Vd [1] [L/kg]	AUC(0-t) [1] [ng·h/mL]	Cmax [1] [ng/mL]	Tmax [1] [h]	bioavailability [1] [%]	half-life [1] [h]	IC50 [2] [µM]
CC(=O)N1CCC(Nc2ccc3c(c2)C(=O)N(C[C@H](O)CN2CCc4ccccc4C2)CCO3)CC1 [Compound 52a, (R)-7-((1-acetylpiperidin-4-yl)amino)-4-(3-(3,4-dihydroisoquinolin-2(1H)-yl)-2-hydroxypropyl)-3,4-dihydrobenzo[f][1,4]oxazepin-5(2H)-one]	0.16	0.089	0.025	0.021	0.17	0.064	0.26	0.092	5.17	1.56 ± 0.041	42100 ± 13200	5550 ± 1590	1.33 ± 0.577	133 ± 38.6	4.81 ± 1	0.114
CC(=O)N1CCC(Nc2cc(C(=O)NC[C@H](O)CN3CCc4ccccc4C3)ncn2)CC1 [Compound C3, reference compound]	0.34	0.5		0.029	0.7	0.096	0.23	0.073	13.5	1.32 ± 0.144	13300 ± 3280	3000 ± 567	1.67 ± 0.577	105 ± 25.5	3.37 ± 0.64	0.15
CC(=O)N1CCC(Nc2ccc3c(c2)C(=O)N(C[C@H](O)CN2CCc4ccccc4C2)CC3)CC1 [Compound 24a, (R)-7-((1-acetylpiperidin-4-yl)amino)-2-(3-(3,4-dihydroisoquinolin-2(1H)-yl)-2-hydroxypropyl)-3,4-dihydroisoquinolin-1(2H)-one]	0.19	0.11	0.016	0.026	0.49	0.075	0.28	0.072	4.27	1.81 ± 0.13	35100 ± 7990	4440 ± 680	2	89.8 ± 20.5	3.76 ± 0.195	0.13
